{"source": "patent US5500430A", "about": "“Amidic derivatives of glutamic, aspartic and 2-amino adipic acids, a process for preparing same, and anti-gastrin composition containing the derivatives” (Rotta Research Laboratorium S.p.A., priority 1990, dated 1996)", "key": {"[1]": {"target": "T1, gastrin receptor sites on the cerebral cortex membranes of mice (Mus musculus, UniProt P56481)", "T1 construct": "Mouse cortical tissue; from tissue; host or cells: mouse cerebral cortex membranes", "T1 sequence (P56481 1-453)": "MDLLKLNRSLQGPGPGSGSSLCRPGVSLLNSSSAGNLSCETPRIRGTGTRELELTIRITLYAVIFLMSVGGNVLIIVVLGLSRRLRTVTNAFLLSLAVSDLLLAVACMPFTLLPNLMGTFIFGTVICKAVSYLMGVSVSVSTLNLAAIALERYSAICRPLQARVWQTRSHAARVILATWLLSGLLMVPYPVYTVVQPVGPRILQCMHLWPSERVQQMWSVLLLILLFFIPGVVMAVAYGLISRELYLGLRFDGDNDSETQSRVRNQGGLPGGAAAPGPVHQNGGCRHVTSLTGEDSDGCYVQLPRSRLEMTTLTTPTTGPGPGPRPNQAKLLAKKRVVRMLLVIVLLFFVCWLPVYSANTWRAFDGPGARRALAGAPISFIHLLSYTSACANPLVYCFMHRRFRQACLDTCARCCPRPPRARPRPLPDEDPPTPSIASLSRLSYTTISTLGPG", "test": "Inhibition of the binding of pentagastrin to mouse cortical membranes", "from_the_text": "Tests on binding to cerebral cortex membranes of mice\nThe capacities of some of the compounds of the invention to inhibit the binding of pentagastrin to the gastrin receptor sites on the cerebral cortex membranes of mice was to be evaluated. Pentagastrin tritiate[beta-alanyl-3-3H(N)] was used as the ligand.\nMouse cortical tissue Was homogenised cold in 20 volumes of tris buffer (pH 7.7). After washing and centrifuging, the final pellet was resuspended in 20 volumes of binding buffer containing, inter alia, TRIS, BSA and Bacitracin. 0.4 ml of the membrane thus obtained were then incubated with a radioactive tracer and the compounds under test for 40 minutes at 37° C.\nAfter the supernatant liquid had been removed by centrifuging, the radioactivity associated with the pellet was determined with a liquid scintillator (a beta-counter). The specific binding was the difference between the binding in the absence and in the presence of 10^-5M pentagastrin."}, "fundic mucosa": {"tested_on": "fundic mucosa", "test": "Fundic mucosa hyperplasia induced by pentagastrin in mice", "assay_type": "in vivo", "conditions": "21 days", "from_the_text": "(§1) Inhibitory effect on the rate of growth of tumorous colic cells induced by pentagastrin\n(§2) Gastrin has a trophic effect on the digestive epithelium.\n(§3) Upon the basis of this premise, it was wished to investigate whether the gastrin-specific antagonists of the invention could antagonise the growth of experimentally-induced gastrointestinal tumours.\n(§4) Male mice weighing 20-25 g were inoculated subcutaneously in the interscapular region with a suspension of 8×10^4 tumour cells of a mouse colic adenocarcinoma.\n(§5) After 21 days, the animals were killed and the fundic mucosa and the tumours were removed, weighed and extracted to determine the DNA."}, "[2]": {"tested_on": "mouse colic adenocarcinoma", "test": "Colic tumorous growth induced by pentagastrin in mice", "assay_type": "in vivo", "conditions": "21 days", "from_the_text": "as §1, §2, §3, §4, §5"}, "fundic and colic mucosae": {"tested_on": "fundic and colic mucosae", "conditions": "rats; cited from earlier work"}, "[3]": {"tested_on": "gastric acid secretion induced by pentagastrin", "test": "Antisecretive activity in anaesthetised rats (pentagastrin-stimulated gastric acid secretion)", "assay_type": "in vivo", "description": "Antisecretive activity in anaesthetised rats\nAntisecretive activity in rats was determined with the use of male animals each weighing about 200 g, anaesthetised with urethane. Gastric secretion was stimulated with pentagastrin. The method of K. S. Lai (Gut 5, (1964), 327-341) was used, slightly modified.\nAfter tracheotomy, cannulae were inserted in the oesophagus and the duodenum. A tepid solution. (37° C.) of 0.25 mM NaOH was perfused and passed through the stomach by means of a peristaltic pump at a constant flow rate of 1 ml/minute. After stabilisation for 20 minutes, the stimulating agent, dissolved in a physiological solution, was perfused for 120 minutes at a dose of 30 mcg/Kg/h in a volume of 0.95 ml/hour. After perfusion for 60 minutes (the basal stimulation), the product under test was administered as an intravenous bolus (I.V.) and the perfusion of the stimulant continued for a further 60 minutes. Acid secretion was recorded continuously as a function of time.\n(§6) The activity of the product was evaluated as the percentage reduction in the secreted acidity after the administration of the product compared with the base acidity measured during the first 60 minutes of collection during which only the pentagastrin was present.\nDifferent doses of the antagonist compounds tested were administered so that an ID50, that is, the dose (in mg/Kg I.V.) capable of inhibiting the effect of pentagastrin by 50%, could be calculated.\nThe results thus obtained are illustrated in the following table (Table 1) in which the activities of the compounds are expressed as the ID50s under the stimulus of 30 mcg/Kg/h of pentagastrin."}, "[4]": {"tested_on": "gastric acid secretion induced by pentagastrin", "test": "Antisecretive activity in conscious dogs carrying gastric fistulae", "assay_type": "in vivo, dogs (beagles)", "conditions": "for ED50: Canis lupus familiaris, iv, read-out: ID50 (the source's name)", "description": "Antisecretive activity in conscious dogs\nMale beagles weighing about 10 Kg were used and carried gastric fistulae at the level of the greater curvature, connected near the antral region, steel cannulae 5 cm long and 2 cm wide being inserted for collecting the gastric juices externally. After a period of about one month to recover from the operation, and after suitable conditioning, the animals were treated with pentagastrin at a dose of 3 mcg/Kg/h. The Stimulant, dissolved in a physiological solution, was perfused into the femoral vein for 180 minutes at a rate of 1.9 ml/h. After perfusion for 60 minutes (the basal stimulation) the product under test, dissolved in a physiological solution (1 ml/Kg), was administered in a bolus into the contra-lateral vein and, at the same time, the perfusion of the stimulant continued for a further 120 minutes. The acid secretion was recorded continuously as a function of time.\nas §6, with “present, for each of the periods 0-60 and 60-120 minutes after the product had been administered in a bolus.” for “present.”\nDifferent doses of the compounds (C-1 and C-5) tested were administered so that an ID50, that is the dose (in mg/Kg I.V.) capable of inhibiting the effect of the pentagastrin by 50% could be calculated.\nThe results obtained are given in the following table (Tab. 2) in which the % variations from the base (the mean ± standard deviations calculated on the values obtained from 4 animals) are given for the various doses administered under the stimulus of 3 mcg/Kg/h of pentagastrin, as well as the activities of the compounds, calculated as their ID50s, and the correlation coefficients of the regression lines calculated on the basis of the experimental data."}, "[5]": {"tested_on": "guinea-pig gall bladder contracted with CCK-8", "test": "Anticholecystokinin (anti-CCK) activity on guinea-pig gall bladders stimulated by CCK-8 in vitro", "conditions": "CCK-8 concentration 10 ng/ml, Krebs, 32° C.", "description": "Anticholecystokinin (anti-cc, K) activity\nIn order to confirm the hypothesis that the molecular conformations of the compounds of the invention are suitable to provide them with antagonistic activity towards CCK as well as towards gastrin, the anticontracturant activities of some of the compounds of the invention were tested on guinea-pig gall bladders stimulated by CCK-8 in vitro.\nA longitudinal strip of guinea-pig gall bladder was placed in a bath for isolated organs in the presence of Krebs at a temperature of 32° C. and oxygenated continuously with an oxygen-CO2 mixture (95-5 V/V).\nThe isometric contractions were detected by means of a force transducer and recorded.\nThe gall bladder was contracted with the use of a concentration of 10 ng/ml of CCK-8; the antagonistic activities of the compounds towards the contracturant effect of the CCK was determined with the use of different concentrations, thus determining the IC50 values, that is, the concentration of the compound in mcg/ml which can antagonise the contracturant effect of CCK by 50%."}, "[6]": {"tested_on": "transplantable mouse colic tumour", "conditions": "Winsell et al., Surgical Forum, 33, 384 (1982); cited from earlier work"}, "[7]": {"conditions": "pentagastrin alone, 250 mcg/Kg twice a day"}}, "note": "Where two headings read alike, the source gives them in different places.", "data": [{"compound": "CSCC[C@H](NC(=O)[C@H](Cc1c[nH]c2ccccc12)NC(=O)CCNC(=O)OC(C)(C)C)C(=O)N[C@@H](CC(=O)O)C(=O)N[C@@H](Cc1ccccc1)C(N)=O", "note": "[Pentagastrin, pentagastrin, reference compound]", "values": [{"measurement": "IC50", "setting": "[1]", "result": 2.5, "unit": "nM"}, {"measurement": "Effect on the fundic mucosa (in words)", "setting": "fundic mucosa; mice", "result": "induces significant hyperplasia in the fundic mucosa"}, {"measurement": "Fundic DNA, Mean ± SD", "setting": "fundic mucosa; [7]", "result": "0.330 ± 0.05", "unit": "mg"}, {"measurement": "Weight of the mucosa fundica, Mean ± SD", "setting": "fundic mucosa; [7]", "result": "32.0 ± 3.50", "unit": "mg"}, {"measurement": "Effect on colic tumour weight and DNA content (in words)", "setting": "[2]; mice", "result": "a significant increase in the weight of the colic tumour and the DNA content"}, {"measurement": "Tumorous DNA, Mean", "setting": "[2]; [7]", "result": "3.62 ± 0.50", "unit": "mg"}, {"measurement": "Weight of the colic tumor, Mean ± SD", "setting": "[2]; [7]", "result": "657.0 ± 97.7", "unit": "mg"}, {"measurement": "Trophic effect of chronic administration", "setting": "fundic and colic mucosae", "result": "causes hyperplasia of the fundic and colic mucosae"}]}, {"compound": "O=C(O)CC[C@@H](NC(=O)c1cccc(Cl)c1)C(=O)N1CCC2(CCCC2)CC1", "note": "[Compound C1]", "values": [{"measurement": "ED50", "setting": "[3]; Rattus norvegicus, iv, anaesthetised male rats, pentagastrin 30 mcg/Kg/h, I.V. bolus, IN with bound, read-out: Antagonistic activity (ID50) towards gastric acid secretion induced by pentagastrin", "result": 20, "unit": "mg/kg"}, {"measurement": "Antigastrin activity (in words)", "setting": "[3]; anaesthetised rats, pentagastrin 30 mcg/Kg/h", "result": "particularly favourable"}, {"measurement": "Activity on the peripheral gastrin (gastric secretion) receptor relative to compound C2 (times more active)", "setting": "[3]; rats, vs C2", "result": "about 1.5 times"}, {"measurement": "Variation % (Mean ± SD) from base (0-60 min)", "setting": "[4]; 5 mg/Kg I.V., period 60-120 min", "result": "-18.2 ± 0.3", "unit": "%"}, {"measurement": "Variation % (Mean ± SD) from base (0-60 min)", "setting": "[4]; 5 mg/Kg I.V., period 120-180 min", "result": "-22.8 ± 16.7", "unit": "%"}, {"measurement": "Variation % (Mean ± SD) from base (0-60 min)", "setting": "[4]; 10 mg/Kg I.V., period 60-120 min", "result": "-38.9 ± 7.9", "unit": "%"}, {"measurement": "Variation % (Mean ± SD) from base (0-60 min)", "setting": "[4]; 10 mg/Kg I.V., period 120-180 min", "result": "-14.3 ± 8.5", "unit": "%"}, {"measurement": "Variation % (Mean ± SD) from base (0-60 min)", "setting": "[4]; 20 mg/Kg I.V., period 60-120 min", "result": "-49.5 ± 4.2", "unit": "%"}, {"measurement": "Variation % (Mean ± SD) from base (0-60 min)", "setting": "[4]; 20 mg/Kg I.V., period 120-180 min", "result": "-26.1 ± 6.4", "unit": "%"}, {"measurement": "Variation % (Mean ± SD) from base (0-60 min)", "setting": "[4]; 30 mg/Kg I.V., period 60-120 min", "result": "-61.1 ± 12.5", "unit": "%"}, {"measurement": "Variation % (Mean ± SD) from base (0-60 min)", "setting": "[4]; 30 mg/Kg I.V., period 120-180 min", "result": "-56.7 ± 19.5", "unit": "%"}, {"measurement": "Variation % (Mean ± SD) from base (0-60 min)", "setting": "[4]; 40 mg/Kg I.V., period 60-120 min", "result": "-63.4 ± 11.5", "unit": "%"}, {"measurement": "Variation % (Mean ± SD) from base (0-60 min)", "setting": "[4]; 40 mg/Kg I.V., period 120-180 min", "result": "-43.4 ± 10.3", "unit": "%"}, {"measurement": "Variation % (Mean ± SD) from base (0-60 min)", "setting": "[4]; 60 mg/Kg I.V., period 60-120 min", "result": "-74.2 ± 5.6", "unit": "%"}, {"measurement": "Variation % (Mean ± SD) from base (0-60 min)", "setting": "[4]; 60 mg/Kg I.V., period 120-180 min", "result": "-79.9 ± 1.6", "unit": "%"}, {"measurement": "ED50", "setting": "[4]; 1 h, conscious dogs, I.V. bolus, period 60-120 min (first hour after administration)", "result": 19.7, "unit": "mg/kg"}, {"measurement": "ED50", "setting": "[4]; 2 h, conscious dogs, I.V. bolus, period 120-180 min (second hour after administration)", "result": 31.5, "unit": "mg/kg"}, {"measurement": "ID50", "setting": "[4]; conscious dogs, I.V. bolus, period 60-120 min (first hour after administration), 60 min", "result": "about 20 mg/Kg"}, {"measurement": "Inhibition of gastric acid secretion induced by pentagastrin in dogs (in words)", "setting": "[4]; conscious dogs, first hour after bolus", "result": "potent inhibitors of gastric acid secretion induced by pentagastrin in dogs"}, {"measurement": "Activity relative to the corresponding S enantiomer (times more active)", "setting": "[1]; R series vs S enantiomers (C1 vs C32)", "result": "about 50 times"}, {"measurement": "IC50", "setting": "[1]; pentagastrin tritiate ligand, 40 minutes at 37° C., read-out: IC50, inhibition of the binding of pentagastrin", "result": 470, "unit": "nM"}, {"measurement": "Central activity relative to C2", "setting": "[1]; vs C2", "result": "only one third as active as C2 centrally"}, {"measurement": "Anti-CCK activity IC50", "setting": "[5]", "result": 20, "unit": "µg/mL"}]}, {"compound": "gastrin", "values": [{"measurement": "Trophic effect of chronic administration", "setting": "fundic and colic mucosae", "result": "causes hyperplasia of the fundic and colic mucosae"}, {"measurement": "Effect on growth of a transplantable mouse colic tumour", "setting": "[6]", "result": "stimulates the growth of a transplantable mouse colic tumour"}]}]}
